Assay results taken from US11702663B2, “Bacteria-based protein delivery” (Universitaet Basel, priority 2015, dated 2023).

Experiments:
B16F10 cells = type: cell-based, murine
D2A1 cells = type: cell-based
4T1 cells = type: cell-based, murine
HeLa cells [1] = type: cell-based, human
HeLa cells [2] = type: cell-based, human; remark: listed apart in the source
HeLa cells [3] = type: cell-based, human; remark: listed apart in the source
HeLa cells [4] = test: Western blotting of T3SS translocated proteins from infected cells (digitonin lysis); type: cell-based, human; conditions: HeLa cells coinfected with strain delivering 2×TEV cleavage site substrate, 2 h, MOI of 100
Description: Western blotting of T3SS translocated proteins from infected cells. HeLa cells in 6-well plates were infected at an MOI of 100 as described above. In case of coinfection with the TEV protease translocating Y. enterocolitica strain, the OD600 of the strains was set and the two bacterial suspensions were mixed in a tube at a ratio of 1:1 (if not otherwise indicated) before addition to the cells. At the end of the infection, the cells were washed twice with ice-cold PBS and collected by scraping in a small volume of ice-cold PBS. After centrifugation (16 000 rcf, 5 min, 4° C.) the pellet was dissolved in 0.002% digitonin supplemented with a protease inhibitor cocktail (Roche complete, Roche). The dissolved pellets were incubated for 5 minutes on ice and then centrifuged (16 000 rcf, 25 min, 4° C.). Supernatants were collected and analyzed for total protein content by […] (Pierce) before SDS PAGE and Western blotting using an anti-Myc (Santa Cruz, 9E11) or anti-Ink4C (Cell Signaling) antibody.

[5] = tested on: 4T1 murine breast cancer cells; type: cell-based
[6] = tested on: B16F10 murine melanoma cells; type: cell-based
p38 = type: cell-based, human
Akt = type: cell-based, human
HeLa cells [7] = type: cell-based, human; remark: listed apart in the source
zebrafish embryos = conditions: in vivo

BH3 domain of murine BAX: YopE1-138 fusion to BH3 domain of murine BAX, codon optimized for Y. enterocolitica
cell death (B16F10 cells): induce massive cell death
cell death (D2A1 cells): induce massive cell death
cell death (4T1 cells): induce massive cell death
cell death (HeLa cells [1]): induce massive cell death

BH3 domain of murine BID: YopE1-138 fusion to BH3 domain of murine tBID, codon optimized for Y. enterocolitica
cell death (B16F10 cells): induce massive cell death
cell death (D2A1 cells): induce massive cell death
cell death (4T1 cells): induce massive cell death
cell death (HeLa cells [1]): induce massive cell death

BepA: YopE1-138 fusion to full length type IV effector BepA from B. henselae
cAMP production (HeLa cells [2]): triggered cAMP production in expected amounts

BepAE305-end: YopE1-138 fusion to BepA E305-end containing the C-terminal Bid domain
cAMP production (HeLa cells [2]): triggered cAMP production in expected amounts

BepG: YopE1-138 fusion to the Bid domain of the B. henselae effector BepG
cAMP production (HeLa cells [2]): failed to induce cAMP

Murine tBID fused to full length SteA: full length SteA fused to murine tBID, delivered by S. enterica
apoptosis induction (CASP3 p17 subunit) (HeLa cells [3]): lead to apoptosis induction

TEV protease: TEV protease (S219V variant) fused to YopE1-138
activity of T3SS delivered TEV protease (HeLa cells [4]): functional

YopE1-138-(tBID BH3)2: murine BH3 domain of tBID fused to itself, fused to YopE1-138
IC50 (MOI), pBad-MycHisA based delivery compared with pYV encoded [5]: slightly decreased IC50 value
capacity of inducing apoptosis, IC50 (MOI needed to kill 50% of cells) [5]: decreased upon delivery of tandem repeats of tBID BH3 domain as compared to a single tBID BH3 domain
cell death (nuclear count) [5]: more active than YopE1-138-(tBID-BH3) at lower MOI
efficiency of cell killing, IC50 (MOI needed to kill 50% of cells) [5]: decreased upon delivery of tandem repeats of tBID BH3 domain as compared to a single tBID BH3 domain
IC50 (MOI), pBad-MycHisA based delivery compared with pYV encoded [6]: slightly decreased IC50 value
capacity of inducing apoptosis, IC50 (MOI needed to kill 50% of cells) [6]: decreased upon delivery of tandem repeats of tBID BH3 domain as compared to a single tBID BH3 domain
cell death (nuclear count) [6]: more active than YopE1-138-(tBID-BH3) at lower MOI
efficiency of cell killing, IC50 (MOI needed to kill 50% of cells) [6]: decreased upon delivery of tandem repeats of tBID BH3 domain as compared to a single tBID BH3 domain

YopE1-138-(tBID-BH3)-(BAX-BH3): murine BH3 domain of tBID fused to murine BH3 domain of BAX, fused to YopE1-138
cell death (nuclear count) [5]: more active than YopE1-138-(tBID-BH3) at lower MOI
cell death (nuclear count) [6]: more active than YopE1-138-(tBID-BH3) at lower MOI

YopE1-138-(tBID-BH3): BH3 domain of murine tBID fused to YopE1-138, control for repeated domain constructs
cell death (nuclear count) [5]: triggered cell death
cell death (nuclear count) [6]: triggered cell death

YopE1-138-BID: YopE1-138 fusion to human BH3 interacting-domain death agonist (BID)
apoptosis induction / cell death (HeLa cells [1]): failed to induce apoptosis

YopE1-138-OspF: YopE1-138 fusion to S. flexneri type III effector OspF, a phosphothreonine lyase
TNFα-induced p38 phosphorylation (p38): TNFα-induced phosphorylation was abolished

YopE1-138-SopB: YopE1-138 fusion to Salmonella type III effector SopB
phosphorylation of Akt at T308 and S473 (Akt): induced a strong phosphorylation of Akt at T308 and S473

YopE1-138-SopE-Myc: YopE1-138 fusion to SopE with MycHis tag
F-actin rearrangements (HeLa cells [7]): triggered massive F-actin rearrangements

YopE1-138-SopE: YopE1-138 fusion to SopE from Salmonella enterica, a guanine nucleotide exchange factor
phosphorylation of Akt at T308 and S473 (Akt): had no effect on Akt
changes in the actin network (HeLa cells [7]): induced dramatic changes in the actin network
first changes in the actin cytoskeleton observed (HeLa cells [7]): 2 min p.i.

YopE1-138-SptP: YopE1-138 fusion to SptP, a GTPase activating protein (GAP) for Cdc42
effect of co-infection on F-actin rearrangements triggered by YopE1-138-SopE-Myc (HeLa cells [7]): abolished this effect in a dose dependent manner

YopE1-138-tBID: YopE1-138 fusion to human truncated BID (tBID)
apoptosis induction / cell death (HeLa cells [1]): triggered cell death in larger extend than the well-characterized apoptosis inducer staurosporin
apoptotic response (confocal images, mitochondrial integrity) (HeLa cells [1]): induces a rapid apoptotic response
production of CASP3 p17 subunit (HeLa cells [1]): lead to the production of CASP3 p17 subunit, even in larger amounts as with staurosporin

YopE1-138-z-BIM: YopE1-138 fusion to zebrafish apoptosis inducer z-BIM
apoptosis in nearby cells, automated image analysis on maximum intensity z projections (zebrafish embryos): induce apoptosis in nearby cells by far more than control bacteria do
cleaved CASP3 (p17) staining in regions surrounding the bacteria (zebrafish embryos): strong increase in presence of cleaved CASP3
apoptosis induction / cell death (HeLa cells [1]): showed clear signs of cell death

murine tBID: murine tBID codon optimized for Y. enterocolitica fused to YopE1-138
cell death (B16F10 cells): triggered cell death
cell death (D2A1 cells): triggered cell death
cell death (4T1 cells): triggered cell death
cell death (HeLa cells [1]): triggered cell death

B1: SteA1-20 fused murine tBID: 20 N-terminal amino acids of SteA fused to murine tBID, delivered by S. enterica (protein)
chain: MPYTSVSTYARALSGNKLPHGTGSQASRSFNQGRIEPDSESQEEIIHNIARHLAQIGDEMDHNIQPTLVRQLAAQFMNGSLSEEDKRNCLAKALDEVKTAFPRDMENDKAMLIMTMLLAKKVASHAPSLLRDVFHTTVNFINQNLFSYVRNLVRNEMD
modifications: SteA1-20 - S. enterica codon optimized murine t-BID
notes: 20 N-terminal amino acids of SteA fused to murine tBID, delivered by S. enterica
apoptosis induction (CASP3 p17 subunit) (HeLa cells [3]): failed to induce apoptosis
